According to patent US20240083872A1, “CYCLIC AMINE DERIVATIVES HAVING SEROTONIN RECEPTOR BINDING ACTIVITY” (Shionogi & Co., Ltd., priority 2020, published 2024):
Read-outs that look alike come from different tables or passages of the source.

Assays:
[1] = target: human recombinant 5-HT2A receptor (Homo sapiens (Human), UniProt P28223); experiment: 5-HT2A receptor binding inhibition test ([3H]-Ketanserin); conditions: Jump-In HEK cell membrane
Method: Test Example 1: 5-HT2A Receptor Binding Inhibition Test
(§1) (Each Experimental Condition)
Cell membrane: Jump-In HEK cell membrane (expressing human recombinant 5-HT2A receptor)
(§2) Assay buffer: Tris-HCl 50 mmol/L (pH 7.4) containing NaCl 120 mmol/L, MgCl2.6H2O 1 mmol/L, KCl 5 mmol/L, 0.1% BSA, and CaCl2 2 mmol/L
Radioactive ligand: [^3H]-Ketanserin around Kd value calculated by the following method
(§3) Non-specific ligand: Serotonin HCl
(§4) The Kd value was calculated when the lot of cell membrane was changed. In advance, 0.5 μL of a 1 mmol/L compound for non-specific binding calculation dissolved in DMSO or DMSO was dispensed into a microplate, and the cell membrane was diluted with an Assay buffer. The radioactive ligand solution was serially diluted and the count was confirmed with a liquid scintillator. Assay buffer containing diluted cell membrane was dispensed into a microplate at 50 μL/well. Then, the radioactive ligand solution was dispensed into a microplate at 50 μL/well, and the plate was sealed. It was allowed to stand at room temperature (25° C.) for 1.5 hours. During this period, 50 mmol/L Tris-HCl (pH 7.4) was dispensed into a GF/B UniFilter plate at 50 μL/well and allowed to stand at 4° C. for 1 hour or longer. After that, filtration was performed with Cell harvester (PerkinElmer). The radioactive ligand solution was dispensed into an empty well of the GF/B UniFilter plate at 10 μL/well. After the GF/B UniFilter plate was dried at room temperature, MicroScinti 20 was dispensed into the GF/B UniFilter plate at 50 μL/well, and the plate was sealed. The GF/B UniFilter plate was allowed to stand overnight at room temperature. The radioactivity of [^3H]-Ketanserin bound to the 5-HT2A receptor was measured using Microbeta2 (PerkinElmer) at a measurement time of 1 min/well. The Saturation curve was drawn from the measured value, and the Kd value was calculated from the slope of the Scatchard Plot.
(§5) (Binding Test of the Compound According to the Present Invention)
(§6) In advance, 0.5 μL of the compound solution dissolved in DMSO was dispensed into a microplate, and the cell membrane and the hot ligand were diluted with Assay buffer, respectively. Then, the Assay buffer containing the diluted cell membrane was dispensed into a microplate at 50 μL/well. Then, the radioactive ligand solution was dispensed into a microplate at 50 μL/well, and the plate was sealed. Then, it was allowed to stand at room temperature (25° C.) for 1.5 hours. During this period, 50 mmol/L Tris-HCl (pH 7.4) was dispensed into a GF/B UniFilter plate at 50 μL/well and allowed to stand at 4° C. for 1 hour or longer. After that, filtration was performed with Cell harvester (PerkinElmer). After the GF/B UniFilter plate was dried at room temperature, MicroScinti 20 was dispensed into the GF/B UniFilter plate at 50 μL/well, and the plate was sealed. The GF/B UniFilter plate was allowed to stand overnight at room temperature. The radioactivity of [^3H]-Ketanserin bound to the 5-HT2A receptor was measured using Microbeta2 (PerkinElmer) at a measurement time of 1 min/well. The non-specific binding was calculated from the radioactivity of [^3H]-Ketanserin in the presence of […] Serotonin HCl with the unlabeled ligand, and the total binding was calculated from the radioactivity of [^3H]-Ketanserin in the absence of the compound according to the present invention (Vehicle). Finally, the Ki value was calculated from the dose-response curve.
(§7) (The binding activity of the compound according to the present invention was calculated from the following binding inhibition rate (%).)
(§8) Inhibition rate (%)=[1−(c−a)/(b−a)]×100 • a; mean cpm of non-specific binding • b; mean cpm of total binding • c; cpm in the presence of the test compound

[2] = target: human recombinant 5-HT2C receptor (Homo sapiens (Human), UniProt P28335); experiment: 5-HT2C receptor binding inhibition test ([3H]-Mesulergine)
Chain of human recombinant 5-HT2C receptor (P28335 33-458): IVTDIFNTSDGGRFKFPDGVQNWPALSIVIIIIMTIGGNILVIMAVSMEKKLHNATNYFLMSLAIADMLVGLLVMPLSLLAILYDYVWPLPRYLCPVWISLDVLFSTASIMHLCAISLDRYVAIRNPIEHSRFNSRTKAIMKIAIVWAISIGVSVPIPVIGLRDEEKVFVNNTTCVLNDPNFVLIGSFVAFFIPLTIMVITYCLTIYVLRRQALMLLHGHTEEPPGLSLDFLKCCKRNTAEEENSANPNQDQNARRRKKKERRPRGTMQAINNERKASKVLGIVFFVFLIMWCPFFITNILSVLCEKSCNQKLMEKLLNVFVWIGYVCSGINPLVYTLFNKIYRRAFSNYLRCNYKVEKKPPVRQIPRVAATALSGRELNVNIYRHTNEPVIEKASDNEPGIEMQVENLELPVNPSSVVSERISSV
Method: as §1
Cell membrane: Jump-In HEK cell membrane (expressing human recombinant 5-HT2C receptor)
as §2
Radioactive ligand: [^3H]-Mesulergine around Kd value calculated by the following method
as §3
as §4, with “[…]” for “4°”, “The radioactivity of [^3H]-Ketanserin bound to the 5-HT2A receptor was measured using Microbeta2 (PerkinElmer) at a measurement time of 1 min/well.” left out
as §5
as §6, with “37° C.” for “room temperature (25° C.)”, “2” for “1.5”, “The radioactivity of [^3H]-Ketanserin bound to the 5-HT2A receptor was measured using Microbeta2 (PerkinElmer) at a measurement time of 1 min/well.” left out, “[^3H]-Mesulergine” for “[^3H]-Ketanserin”
as §7, §8

[3] = read-out: human serotonin 5-HT2A receptor binding activity, Ki value
[4] = Jump-In HEK cell membrane, [3H]-Mesulergine, read-out: human serotonin 5-HT2C receptor binding inhibitory activity, Ki value
[5] = Jump-In HEK cell membrane, [3H]-Mesulergine, read-out: h-5-HT2C Ki

Chain of human recombinant 5-HT2A receptor (P28223 whole entry): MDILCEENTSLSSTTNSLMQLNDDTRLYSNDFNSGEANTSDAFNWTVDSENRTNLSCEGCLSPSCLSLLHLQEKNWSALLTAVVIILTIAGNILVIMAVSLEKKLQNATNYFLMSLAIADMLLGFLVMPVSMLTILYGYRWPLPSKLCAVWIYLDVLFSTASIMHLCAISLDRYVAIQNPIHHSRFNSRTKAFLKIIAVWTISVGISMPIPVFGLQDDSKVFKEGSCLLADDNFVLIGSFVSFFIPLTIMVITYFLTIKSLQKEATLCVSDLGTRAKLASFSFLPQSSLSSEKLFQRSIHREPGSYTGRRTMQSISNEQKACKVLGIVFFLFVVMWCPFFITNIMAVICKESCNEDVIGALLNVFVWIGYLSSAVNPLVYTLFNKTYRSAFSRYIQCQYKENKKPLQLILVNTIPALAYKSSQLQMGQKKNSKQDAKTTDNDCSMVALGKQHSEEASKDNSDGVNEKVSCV

Ki ([1]; read-out: h-5-HT2A Ki) | Ki [2, 5] | SMILES | Ki [1, 3] | Ki [2, 4] | Ki [2]
– | – | CN1CCC(NC(=O)N(Cc2ccc(C3CC3)cc2)Cc2ccn(C)n2)CC1 [Compound I-029] | 4.33 nM | 20.5 nM | –
< 10 nM | < 10 nM | CC(C)COc1ccc(CN(Cc2ccc(F)cn2)C(=O)NC2CCNCC2)cc1 [Compound I-017] | – | – | –
– | – | Cc1ccc(CN(Cc2ccc(OCC(C)C)cc2)C(=O)NC2CCN(C)CC2)nc1 [Compound I-031] | 0.709 nM | 1.89 nM | –
< 10 nM | < 10 nM | CC(C)COc1ccc(CN(Cc2ccn(C)n2)C(=O)N[C@H]2CCNC[C@H]2F)cc1 [Compound I-048] | – | – | –
100 to 5000 nM | 100 to 5000 nM | CN1CCC(NC(=O)N(Cc2ccc(OCCO)cc2)Cc2ccn(C)n2)CC1 [Compound I-011] | – | – | –
– | – | CC(C)COc1ccc(CN(Cc2cnn(C)n2)C(=O)NC2CCN(C)CC2)cc1 [Compound I-101] | 0.683 nM | 0.461 nM | –
10 to 100 nM | 100 to 5000 nM | CC(C)COc1ccc(CN(Cc2ccncn2)C(=O)NC2CCN(C)CC2)cc1 [Compound I-019] | – | – | –
10 to 100 nM | 10 to 100 nM | CC(C)COc1ccc(CN(Cc2ccn(C)n2)C(=O)NC2C3CCC2CN(C)C3)cc1 (single isomer, unassigned) [Compound I-075] | – | – | –
< 10 nM | 10 to 100 nM | COc1ccc(CN(Cc2ccn(C)c2)C(=O)OC2CCN(C)CC2)cc1 [Compound I-094] | – | – | –
10 to 100 nM | 10 to 100 nM | CC(C)COc1ccc(CN(Cc2ccn(C)n2)C(=O)N[C@H]2[C@@H]3CN(C)C[C@@H]32)cc1 [Compound I-058] | – | – | –
10 to 100 nM | 10 to 100 nM | COCCN1CCC(NC(=O)N(Cc2ccc(OCC(C)C)cc2)Cc2ccn(C)n2)CC1 [Compound I-063] | – | – | –
100 to 5000 nM | 100 to 5000 nM | COc1ccc(CN(Cc2ccn(C)n2)C(=O)NC2CCN(C)CC2)nc1 [Compound I-051] | – | – | –
– | – | CCCc1ccc(CN(Cc2coc(C)n2)C(=O)NC2CCN(C)CC2)cc1F [Compound I-107] | 0.549 nM | 0.34 nM | –
< 10 nM | < 10 nM | CC(C)COc1ccc(CN(Cc2ccc(F)cn2)C(=O)NC2CCN(C)CC23CC3)cc1 (racemic) [Compound I-044] | – | – | –
< 10 nM | 10 to 100 nM | CC(C)COc1ccc(CN(Cc2cocn2)C(=O)NC2CCN(C)CC2)cc1 [Compound I-035] | – | – | –
10 to 100 nM | 10 to 100 nM | CC(C)COc1ccc(CN(Cc2cnccn2)C(=O)NC2CCN(C)CC2)cc1 [Compound I-020] | – | – | –
10 to 100 nM | 10 to 100 nM | CC(C)COc1ccc(CN(Cc2ccn(C)n2)C(=O)N[C@@H]2CCNC[C@H]2F)cc1 (racemic) [Compound I-018] | – | – | –
– | – | CCCCOc1ccc(CN(Cc2coc(C(F)F)n2)C(=O)NC2CCN(C)CC2)cc1 [Compound I-109] | 0.43 nM | 0.463 nM | –

SMILES | Ki ([1]; read-out: h-5-HT2A Ki) | Ki [2, 5] | Ki [1, 3] | Ki [2, 4] | Ki [2]
CCCCOc1ccc(CN(Cc2coc(C)n2)C(=O)CN2CCN(C)CC2)cc1 [Compound I-106] | < 10 nM | < 10 nM | – | – | –
CCCCOc1ccc(CN(Cc2coc(CF)n2)C(=O)NC2CCN(C)CC2)cc1 [Compound I-119] | < 10 nM | < 10 nM | – | – | –
CCCCOc1ccc(CN(Cc2coc(C)n2)C(=O)C(F)C2CCN(C)CC2)cc1F (racemic) [Compound I-124] | < 10 nM | < 10 nM | – | – | –
Cc1nc(CN(Cc2ccc(OCC(F)(F)C(F)(F)F)cc2F)C(=O)NC2CCN(C)CC2)co1 [Compound I-121] | < 10 nM | < 10 nM | – | – | –
CN1CCC(NC(=O)N(Cc2coc(C3CC3)n2)Cc2ccc(OCC(F)(F)F)cc2F)CC1 [Compound I-112] | < 10 nM | < 10 nM | – | – | –
CN1CCC(NC(=O)N(Cc2ccc(OCC(F)(F)F)cc2)Cc2coc(C3CC3)n2)CC1 [Compound I-111] | < 10 nM | < 10 nM | – | – | –
CCCCOc1ccc(CN(Cc2coc(C)n2)C(=O)N[C@H]2CCN(C)CC23CC3)cc1 [Compound I-089] | < 10 nM | < 10 nM | – | – | –
CC(C)COc1ccc(CN(Cc2ccn(C)n2)C(=O)NC23CCN(CC2)CC3)cc1 [Compound I-068] | 10 to 100 nM | – | – | – | 100 to 5000 nM
CC(C)COc1ccc(CN(Cc2ccn(C)n2)C(=O)NC2CCNCC2)cc1 [Compound I-079] | < 10 nM | < 10 nM | – | – | –
